According to patent publication US20130123358A1, “Metabolic Benefits to Butyrate as a Chronic Diet Supplement” (priority 2009, published 2013):

Tested on: 3T3-L1 cells
Assay: Adipogenesis in 3T3-L1 cells (qRT-PCR, Oil red O)
Assay type: cell-based
Method: The epididymal fat pad was examined to test this effect of butyrate. The tissue was collected at 13 weeks on HFD (18 weeks in age) and used to make a tissue slide (FIG. 3A). After H&E staining, the slide was photographed under a microscope at magnification 20× (FIG. 3A). Gene expression was determined by qRT-PCR at day 8 after induction of cell differentiation of 3T3-L1 cells. Butyrate was used at 100 uM during induction of adipogenesis. Triglycerides in the 3T3-L1 mature adipocyte cells were quantified using Oil red 0 staining at the day 8 post-induction of differentiation (FIG. 3C). In addition, levels of mRNA for leptin, adiponectin, F4/80 (macrophage marker), TNF-α, and iNOS were determined in the epididymal fat and their relative levels are presented in bar figures (FIGS. 3D-3H). In FIGS. 3A-3H, data are represented as mean±SE (n=8). *P<0.05, **P<0.001.
To confirm the butyrate effect on adipocytes, 3T3-L1 cells were used to study butyrate activity in vitro. The cells were treated with butyrate during induction of adipogenesis, which was determined by expression of adipocyte-specific genes and triglyceride amount. […] However, expression of leptin was reduced by butyrate (FIG. 3B). The reduction may be a result of a decrease in triglyceride accumulation in the differentiated 3T3-L1 adipocytes (FIG. 3C). The triglyceride level was reduced 50% in the cells treated by butyrate.

[1] = butyrate 100 uM during induction of adipogenesis, qRT-PCR day 8

## CCCC(=O)[O-].[Na+] [sodium butyrate]
[1]
  adipocyte-specific markers (PPARδ, aP2, SREBP, and adiponectin): not reduced
  expression of leptin: reduced
Butyrate 100 uM, Oil red O, day 8 post-induction
  triglyceride level, reduction: 50%
